From US12612403B2, “Nitrogen-containing heterocyclic derivative inhibitor, and preparation method therefor and use thereof” (SHANGHAI HANSOH BIOMEDICAL CO., LTD., priority 2024, dated 2026)

Test: In vitro metabolic stability in human liver microsomes
Type: in vitro ADME
Settings: pH 7.4
Procedure: 1. Experimental objective: The purpose of this experiment was to evaluate the metabolic stability of the compounds in phase I and partially phase II in mouse, rat and human liver microsomes, respectively.
2.1 Drug preparation: 10 mM stock solution of the compound of the present disclosure was prepared in DMSO (or other suitable solution) and stored in a −20° C. refrigerator for later use. The compound of the present disclosure was made in house.
2.2 Experimental steps • 1) Preparation of buffer: 4.01 mL of 1 M K2HPO4·3H2O (AR grade) and 0.99 mL of 1 M KH2PO4 (AR grade) were dissolved in ultrapure water and the volume was adjusted to 50 mL to prepare a phosphate buffer with a final concentration of 100 mM. • 2) Preparation of compound working solution: Preparation of compound working solution: 2 μL of the compound stock solution was added to 998 μL of phosphate buffer to a final concentration of 20 μM. According to the properties of the compound, the preparation proportions could be adjusted appropriately to adjust the final concentration. • 3) Preparation of liver microsome working solution: 156.3 μL of 20 mg/mL microsomes were diluted to 5 mL with 100 mM phosphate buffer, and the mixture was mixed well to reach a final concentration of 0.625 mg/mL. • 4) Preparation of NADPH and UDPGA: 33.3 mg of NADPH and 25.8 mg of UDPGA were weighed and added to 2 mL of 100 mM phosphate buffer to reach a final concentration of 20 mM. • 5) Preparation of pore-forming agent (Alamethicin): 1 mg of Alamethicin was weighed and added to 200 μL of methanol to prepare a 5 mg/mL solution. 10 μL of the solution was taken and added to 990 μL phosphate buffer (pH 7.4) to reach a final concentration of 50 μg/mL. • 6) Preparation of reaction stop solution: The internal standard was diluted with acetonitrile (or other suitable solution) to use as a stop solution and stored in a 2° C.-8° C. refrigerator. • 7) Incubation process: 400 μL of the prepared liver microsomes, 25 μL of the compound working solution (20 μM) and 25 μL of Alamethicin (50 μg/mL) were successively added to the 96-well plate, and the mixture was pre-incubated at 37° C. for 10 min. Then, 50 μL of prepared NADPH/UDPGA was added to start the reaction, and the mixture was incubated at 37° C. The total volume of the reaction system was 500 μL. The final contents of each component were as follows:
50 μL of samples were taken at 0, 5, 15, 30, 60 and 120 min, respectively, 200 μL of a cold stop solution containing the internal standard was added to stop the sample reaction, the mixture was centrifuged at 3500 rpm for 10 min, and the supernatant was taken and analyzed by LC-MS/MS.
Instruments: Shimadzu LC-20 AD; Chromatographic column: Phenomenex Gamin® C18 (50*4.6 mm, 5 μm particle size); mobile phase: A: 0.1% aqueous formic acid, B: acetonitrile; Elution gradient: 0.2-1.6 min, […], 3.0-3.1 min, 95% A to 5% A; Flow rate: 1.0 ml/min; Run time: 4.0 min; Injection volume: 5 μL.
Instruments: AP14000 liquid chromatography mass spectrometer, AB Sciex; Ion source: electrospray ionization source (ESI); Drying gas: N2, temperature 500° C.; Electrospray voltage: 5000 V; Detection mode: positive ion detection; Scanning mode: Reaction Monitoring (MRM) mode; Scanning time: 0.8401 s.
3. Data processing: The raw data were calculated according to the following formula: […]
The in vitro liver microsome intrinsic clearance rate (CLint) and liver intrinsic clearance rate (CLint,liver) were calculated by Ke.

| Structure (SMILES) | half-life at 1 µM | microsomal CLint at 1 µM |
| --- | --- | --- |
| O=c1nc(O)ccn1-c1ccc(N[C@H]2CC[C@H](Nc3nc4cc(C(F)(F)F)ccn4n3)C2)nc1 [Example 78, 4-hydroxy-1-(6-(((1S,3S)-3-((7-(trifluoromethyl)-[1,2,4]triazolo[1,5-a]pyridin-2-yl)amino)cyclopentyl)amino)pyridin-3-yl)pyrimidin-2(1H)-one] | 13.2 h | 1.75 µL/min/mg |
| O=C1c2ncccc2CN1c1cnc(N[C@H]2CC[C@H](Nc3nc4cc(OC(F)F)ccn4n3)C2)c(F)c1 [Example 151] | 11.8 h | 1.9 µL/min/mg |
| O=c1nc(O)ccn1-c1cnc(N[C@H]2CC[C@H](Nc3nc4cc(C(F)(F)F)ccn4n3)C2)c(F)c1 [Example 183] | 23 h | 1 µL/min/mg |
